≈ marks a conversion by molar mass, not a printed value. Calls of active or inactive are those of the source. The calls are words filed in the database; no cut-off is given here.
Tests used:
[1] = system: Klebsiella oxytoca; experiment: Antimicrobial activity against Klebsiella oxytoca by broth dilution method; format: functional
[2] = system: Pseudomonas aeruginosa; experiment: Antimicrobial activity against Pseudomonas aeruginosa HPA10586 by broth dilution method; format: functional
[3] = system: Pseudomonas aeruginosa; experiment: Antimicrobial activity against Pseudomonas aeruginosa BA(C2-107) mutant assessed as doubling time; format: functional
[4] = system: Stenotrophomonas maltophilia; experiment: Microbicidal activity against Stenotrophomonas maltophilia 1AC736 selected after 2 times MIC compound exposure; format: functional
[5] = system: Pseudomonas aeruginosa; experiment: Antimicrobial activity against mexAB-oprM protein and mexCD-oprJ deficient Pseudomonas aeruginosa PAO253 overexpressing MexEF-OprN gene by broth dilution method; format: functional
[6] = system: Pseudomonas aeruginosa; experiment: Antimicrobial activity against pfeA deficient Pseudomonas aeruginosa 134 by broth dilution method; format: functional
[7] = system: Acinetobacter baumannii; experiment: Antimicrobial activity against Acinetobacter baumannii HPA74510 selected after 4 times MIC compound exposure; format: functional
[8] = system: Serratia marcescens; experiment: Antimicrobial activity against Serratia marcescens by broth dilution method; format: functional
[9] = system: Escherichia coli; experiment: Antimicrobial activity against Escherichia coli CF102 harboring beta-lactamase TEM-3 by broth dilution method; format: functional
[10] = system: Pseudomonas aeruginosa; experiment: Antimicrobial activity against Pseudomonas aeruginosa BA assessed as number of passages required for MIC to rise above 4 times original MIC; format: functional
[11] = system: Pseudomonas aeruginosa; experiment: Antimicrobial activity against fpvA deficient Pseudomonas aeruginosa (560546)9 M.P. by broth dilution method; format: functional
[12] = system: Enterobacter cloacae; experiment: Antimicrobial activity against Enterobacter cloacae S4741B assessed as appearance of colony at 4 times MIC concentration; format: functional
[13] = system: Enterobacter cloacae; experiment: Antimicrobial activity against Enterobacter cloacae S4741B by broth dilution method; format: functional
[14] = system: Pseudomonas aeruginosa; experiment: Antimicrobial activity against Pseudomonas aeruginosa 621 assessed as number of passages required for MIC to rise above 4 times original MIC; format: functional
[15] = system: Acinetobacter junii; experiment: Antimicrobial activity against Acinetobacter junii 15218 by broth dilution method; format: functional
[16] = system: Acinetobacter baumannii; experiment: Antimicrobial activity against Acinetobacter baumannii HPA74510 by broth dilution method; format: functional
[17] = system: Pseudomonas aeruginosa; experiment: Antimicrobial activity against Pseudomonas aeruginosa 1937E harboring beta-lactamase PSE-4 and class C enzymes by broth dilution method; format: functional
[18] = system: Providencia rettgeri; experiment: Antimicrobial activity against Providencia rettgeri J96 harboring beta-lactamase IMP-1 by broth dilution method; format: functional
[19] = system: Klebsiella oxytoca; experiment: Antimicrobial activity against Klebsiella oxytoca 1028E harboring beta-lactamase K1 by broth dilution method; format: functional
[20] = system: Pseudomonas aeruginosa; experiment: Antimicrobial activity against Pseudomonas aeruginosa HPA996 harboring beta-lactamase VIM-2 by broth dilution method; format: functional
[21] = system: Pseudomonas aeruginosa; experiment: Antimicrobial activity against Pseudomonas aeruginosa 621 by broth dilution method; format: functional
[22] = system: Pseudomonas aeruginosa; experiment: Antimicrobial activity against mexAB-oprM protein and mexZ deficient Pseudomonas aeruginosa PAO267 by broth dilution method; format: functional
[23] = system: Escherichia coli; experiment: Antimicrobial activity against Escherichia coli W3110 assessed as appearance of colony at 4 times MIC concentration; format: functional, organism-based
[24] = system: Pseudomonas aeruginosa; experiment: Antimicrobial activity against Pseudomonas aeruginosa 1973E harboring beta-lactamase PSE-1 and class C enzymes by broth dilution method; format: functional
[25] = system: Pseudomonas aeruginosa; experiment: Antimicrobial activity against Pseudomonas aeruginosa HPA101-1477 harboring beta-lactamase IMP-1 by broth dilution method; format: functional
[26] = system: Proteus penneri; experiment: Antimicrobial activity against Proteus penneri by broth dilution method; format: functional
[27] = system: Acinetobacter baumannii; experiment: Antimicrobial activity against Acinetobacter baumannii HPA 4737 harboring beta-lactamase OXA-26 by broth dilution method; format: functional
[28] = system: Pseudomonas aeruginosa; experiment: Microbicidal activity against Pseudomonas aeruginosa 527 selected after 8 times MIC compound exposure; format: functional
[29] = system: Escherichia coli; experiment: Antimicrobial activity against Escherichia coli Libyien harboring beta-lactamase CMY-2 by broth dilution method; format: functional
[30] = system: Pseudomonas aeruginosa; experiment: Antimicrobial activity against Pseudomonas aeruginosa BA(C1-106) mutant assessed as doubling time; format: functional
[31] = system: Stenotrophomonas maltophilia; experiment: Antimicrobial activity against Stenotrophomonas maltophilia by broth dilution method; format: functional
[32] = system: Pseudomonas aeruginosa; experiment: Microbicidal activity against Pseudomonas aeruginosa BA selected after 4 times MIC compound exposure; format: functional
[33] = system: Pseudomonas aeruginosa; experiment: Antimicrobial activity against Pseudomonas aeruginosa HPA10586 harboring beta-lactamase VIM-1 by broth dilution method; format: functional
[34] = system: Acinetobacter junii; experiment: Antimicrobial activity against Acinetobacter junii 15218 assessed as appearance of colony at 4 times MIC concentration; format: functional
[35] = system: Klebsiella pneumoniae; experiment: Antimicrobial activity against Klebsiella pneumoniae 1338665 by broth dilution method; format: functional
[36] = system: Enterobacter cloacae; experiment: Antimicrobial activity against Enterobacter cloacae S9369 selected after MIC of compound exposure by broth dilution method; format: functional
[37] = system: Escherichia coli; experiment: Antimicrobial activity against Escherichia coli W3110 assessed as highest concentration at which colonies reappeared; format: functional
[38] = biological target: AmpC (Escherichia coli, UniProt Q83TT7); experiment: Inhibition of Escherichia coli ATCC 25922 AmpC
[39] = system: Pseudomonas aeruginosa; experiment: Microbicidal activity against Pseudomonas aeruginosa HPA10586 selected after 8 times MIC compound exposure; format: functional
[40] = Inhibition of Escherichia coli Penicillin-binding protein 2
[41] = system: Stenotrophomonas maltophilia; experiment: Antimicrobial activity against Stenotrophomonas maltophilia 1AC736 assessed as log reduction in colony count within 6 hrs selected after 1 to 16 times MIC compound exposure; format: functional, organism-based
[42] = Inhibition of beta-lactamase TEM-3
[43] = system: Stenotrophomonas maltophilia; experiment: Microbicidal activity against Stenotrophomonas maltophilia 1AC736 selected after MIC of compound exposure; format: functional
[44] = system: Escherichia coli; experiment: Antimicrobial activity against Escherichia coli W3110 assessed as appearance of spheroplast at 4 ug/mL after 3 hrs by phase-contrast microscopy; format: functional, organism-based
[45] = system: Pseudomonas aeruginosa; experiment: Microbicidal activity against Pseudomonas aeruginosa BA selected after 8 times MIC compound exposure; format: functional
[46] = Inhibition of Pseudomonas aeruginosa 143724R beta-lactamase class C
[47] = Inhibition of Pseudomonas aeruginosa 18S/H beta-lactamase class C
[48] = system: Pseudomonas aeruginosa; experiment: Microbicidal activity against Pseudomonas aeruginosa (560546)9 M.P. selected after 4 times MIC compound exposure; format: functional
[49] = system: Acinetobacter baumannii; experiment: Antimicrobial activity against Acinetobacter baumannii HPA74510 assessed as log reduction in colony count after 24 hrs; format: functional
[50] = system: Pseudomonas aeruginosa; experiment: Antimicrobial activity against Pseudomonas aeruginosa 860 assessed as highest concentration at which colonies reappeared; format: functional
[51] = system: Enterobacteriaceae; experiment: Antimicrobial activity against Enterobacteriaceae by broth dilution method; format: functional
[52] = system: Acinetobacter junii; experiment: Antimicrobial activity against Acinetobacter junii 15218 assessed as highest concentration at which colonies reappeared; format: functional
[53] = Inhibition of beta-lactamase KPC-2
[54] = system: Enterobacter cloacae; experiment: Antimicrobial activity against Enterobacter cloacae S9369 assessed as log reduction in colony count after 24 hrs; format: functional
[55] = system: Pseudomonas aeruginosa; experiment: Antimicrobial activity against Pseudomonas aeruginosa HPA10586 assessed as log reduction in colony count within 6 hrs selected after 1 to 16 times MIC compound exposure; format: functional, organism-based
[56] = Inhibition of beta-lactamase VIM-1
[57] = Inhibition of Escherichia coli Penicillin-binding protein 1A
[58] = Inhibition of beta-lactamase SHV-4
[59] = Inhibition of Escherichia coli Penicillin-binding protein 3
[60] = Inhibition of Escherichia coli Penicillin-binding protein 1B

Chain of AmpC (Q83TT7 whole entry): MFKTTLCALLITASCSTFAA

With `C[C@@H](O)[C@H]1C(=O)N2C(C(=O)O)=C(S[C@@H]3CN[C@H](C(=O)N(C)C)C3)[C@H](C)[C@H]12` [MEROPENEM] the MIC50 [1] was ≤ 0.06 µg/mL, the MIC90 [1] was 1 µg/mL (≈ 2.61 µM) and the MIC [2] was > 128 µg/mL. For the same molecule, the Time [3] was 4.1 h, the MBC [4] was 16 µg/mL (≈ 41.7 µM) and the MIC [5] was 0.5 µg/mL (≈ 1.3 µM). For the same molecule, the MIC [6] was 1 µg/mL (≈ 2.61 µM), the MIC [7] was > 128 µg/mL and the MIC50 [8] was 0.125 µg/mL (≈ 0.326 µM). The MIC90 [8] was 4 µg/mL (≈ 10.4 µM), the MIC [9] was ≤ 0.06 µg/mL and the Activity [10] was 3 passages. For the same molecule, the MIC [11] was 2 µg/mL (≈ 5.22 µM), the Activity [12] was “Active” and the MIC [13] was 1 µg/mL (≈ 2.61 µM). It also gave an Activity [14] of 2 passages, an MIC [15] of 0.25 µg/mL (≈ 0.652 µM) and an MIC [16] of 1 µg/mL (≈ 2.61 µM). The MIC [17] was 1 µg/mL (≈ 2.61 µM), the MIC [18] was > 32 µg/mL and the MIC [19] was 0.125 µg/mL (≈ 0.326 µM). For the same molecule, the MIC [20] was 32 µg/mL (≈ 83.4 µM), the MIC [21] was 0.125 µg/mL (≈ 0.326 µM) and the MIC [22] was 0.125 µg/mL (≈ 0.326 µM). The Activity [23] was “Active”, the MIC [24] was 4 µg/mL (≈ 10.4 µM) and the MIC [25] was > 32 µg/mL. For the same molecule, the MIC50 [26] was 0.125 µg/mL (≈ 0.326 µM), the MIC90 [26] was 0.5 µg/mL (≈ 1.3 µM) and the MIC [27] was > 32 µg/mL. For the same molecule, the MBC [28] was 32 µg/mL (≈ 83.4 µM), the MIC [29] was 0.125 µg/mL (≈ 0.326 µM) and the Time [30] was 3.8 h. For the same molecule, the MIC50 [31] was 8 µg/mL (≈ 20.9 µM), the MIC90 [31] was > 32 µg/mL and the MBC [32] was 2 µg/mL (≈ 5.22 µM). For the same molecule, the MIC [33] was > 32 µg/mL, the Activity [34] was “Active” and the MIC [35] was 4 µg/mL (≈ 10.4 µM). It also gave an MBC [36] of 2 µg/mL.
`CC1(C)[C@H](NC(=O)/C(=N\OCc2cc(=O)c(O)cn2O)c2csc(N)n2)C(=O)N1OS(=O)(=O)O` (stereo in doubt) showed an Activity [37] of 1 mg/L, an IC50 [38] of 0.5 µM and an MBC [39] of 8 µg/mL (≈ 15.4 µM). The IC50 [40] was 30 µM, the MIC50 [1] was 0.125 µg/mL (≈ 0.241 µM) and the MIC90 [1] was 4 µg/mL (≈ 7.71 µM). For the same molecule, the MIC [5] was 0.5 µg/mL (≈ 0.964 µM), the MIC [6] was 1 µg/mL (≈ 1.93 µM) and the Activity [41] was “Active”. The IC50 [42] was 4.6 µM, the MBC [43] was 0.125 µg/mL and the Activity [44] was “Active”. It also gave an MBC [45] of 4 µg/mL (≈ 7.71 µM), an IC50 [46] of 27 µM and an MIC50 [8] of 2 µg/mL (≈ 3.86 µM). The MIC90 [8] was 4 µg/mL (≈ 7.71 µM), the MIC [9] was 4 µg/mL (≈ 7.71 µM) and the Activity [10] was 5 passages. The IC50 [47] was 28 µM, the MIC [11] was 1 µg/mL (≈ 1.93 µM) and the MBC [48] was 4 µg/mL (≈ 7.71 µM). The FC [49] was 3, the Activity [50] was 32 mg/L and the Activity [12] was 7 frequency. The Activity [14] was 5 passages, the MIC50 [51] was 2 µg/mL (≈ 3.86 µM) and the MIC [17] was 2 µg/mL (≈ 3.86 µM). It also gave an MIC [18] of 0.125 µg/mL (≈ 0.241 µM), an MIC [19] of 0.5 µg/mL (≈ 0.964 µM) and an MIC [20] of 1 µg/mL (≈ 1.93 µM). The Activity [52] was 1 mg/L, the IC50 [53] was > 2500 µM and the MIC [22] was ≤ 0.06 µg/mL. For the same molecule, the Activity [23] was “Active”, the FC [54] was 3 and the MIC [24] was 4 µg/mL (≈ 7.71 µM). The Activity [55] was “Active”, the MIC [25] was 2 µg/mL (≈ 3.86 µM) and the IC50 [56] was > 500 µM. The IC50 [57] was 3.9 µM, the MIC [26] was ≤ 0.06 µg/mL and the MIC50 [26] was ≤ 0.06 µg/mL. The MIC90 [26] was 0.25 µg/mL (≈ 0.482 µM), the MIC [27] was 8 µg/mL (≈ 15.4 µM) and the IC50 [58] was 4.3 µM. The MIC [29] was 4 µg/mL (≈ 7.71 µM), the MIC50 [31] was 0.5 µg/mL (≈ 0.964 µM) and the MIC90 [31] was 2 µg/mL (≈ 3.86 µM). The IC50 [59] was 0.048 µM, the MIC [33] was 2 µg/mL (≈ 3.86 µM) and the Activity [34] was “Active”. It also gave an IC50 [60] of 1.9 µM.

Source: ChEMBL document CHEMBL1255477, “In vitro properties of BAL30072, a novel siderophore sulfactam with activity against multiresistant gram-negative bacilli” (Antimicrob Agents Chemother, 2010)
